Results reported in patent US20050209278A1, “Piperidinyl- and piperazinyl-sulfonylmethyl hydroxamic acids and their use as protease inhibitors” (priority 2002, published 2005).
Where a name gives a salt, the structure may show the parent alone. Read-outs that look alike come from different tables or passages of the source.

Legend:
MMP-13 = target: T1, MMP-13 (Homo sapiens, UniProt P45452); test: In vitro MMP inhibition, Ki determination (fluorogenic substrate II); type: biochemical
T1 construct: made in house; host or cells: baculovirus / insect cells
Summary of the method: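 Ki determined with human recombinant MMP-13, baculovirus-expressed as proenzyme and activated with APMA. Fluorogenic MCA/Dpa substrate II at 4 μM (at or below Km) with low enzyme in Tris buffer pH 7.5 with CaCl2. Incubation was 1 h at room temperature, with fluorescence read at 330/420 nm.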

MMP-9 = target: T2, MMP-9 (Homo sapiens, UniProt P14780); test: as above; type: biochemical
T2 construct: made in house; host or cells: MMP-9-transfected HT1080 cells (spent media)
Protocol: Several hydroxamic acids and salts thereof were analyzed in in vitro assays to determine their ability to inhibit the MMP cleavage of peptide substrates. […] and IC50 constants were calculated from the assayed hydroxamic acid-MMP interactions.
Human recombinant MMP-1, MMP-2, MMP-9, MMP-13, and MMP-14 were used in this assay. All enzymes were prepared in Assignee's laboratories following usual laboratory procedures. Protocols for the preparation and use of these enzymes are available in the scientific literature. See, e.g., Enzyme Nomenclature (Academic Press, San Diego, Calif., 1992) (and the citations therein). See also, Freije et al., “Molecular cloning and expression of collagenase-3, a novel human matrix metalloproteinase produced by breast carcinomas,” J Biol. Chem., 269(24), 16766-16773 (1994).
The MMP-9 proenzyme was purified by gelatin Sepharose chromatography from spent media of MMP-9-transfected HT1080 cells provided by Dr. Howard Welgus of Washington University (St. Louis, Mo.).
All MMPs were activated using 4-aminophenylmercuric acetate (“APMA”, Sigma Chemical, St. Louis, Mo.) or trypsin. MMP-9 also was activated using human recombinant MMP-3 (purified in Assignee's laboratory following standard cloning and purification techniques).
Two fluorogenic, methoxycoumarin-containing polypeptide substrates were used in the MMP inhibition assays: [drawing 427] Here, “Dpa” is 3-(2,4-dinitrophenyl)-L-2,3-diaminopropionyl group, and “MCA” is 7-methoxycoumarin-4-yl acetyl. Substrate (I) was purchased from Baychem (Redwood City, Calif.), and substrate II was prepared Assignee's laboratory. Substrate I was used in the IC50 determination assays, while substrate II was used in the Ki determination assays. In the absence of MMP inhibitory activity, either substrate is cleaved at the Gly-Leu peptide bond. This cleavage separates the highly fluorogenic peptide from the 2,4-dinitrophenyl quencher, thus resulting in increase of fluorescent intensity.
The stock solutions of the assayed hydroxamic acids (or salts thereof) were prepared in 1% dimethyl sulfoxide (DMSO). These stock solutions were diluted in Buffer A (100 mM Tris-HCl, 100 mM NaCl, 10 mM CaCl2, 0.05% polyoxyethylene 23 lauryl ether, pH 7.5) to obtain solutions with different hydroxamic acid concentrations, i.e., assay solutions with different concentrations of the assayed MMP inhibitory compound. The experiment controls contained the same amount of Buffer A/DMSO as the assayed sample, but contained no hydroxamic acid (or salt thereof).
The assays from which the Ki determinations were made were performed as follows. The assayed hydroxamic acid samples were incubated in separate wells of untreated white polystyrene plates (Nunc Nalgene International, Rochester, N.Y.), and analyzed on a Tecan SpectraFlour Plus plate reader. The excitation wavelength was 330 nm, and the emission wavelength—420 nm. All samples (assayed hydroxamic acids and controls) were incubated in separate plate wells at room temperature for 1 hr in the presence of 4 μM of MMP substrate (II). In the absence of MMP inhibitory activity, substrate II was cleaved at the Gly-Leu bond resulting in an increase of relative fluorescence. Inhibition was observed as a reduced rate of this increase in relative fluorescence. The various hydroxamic acids were analyzed using a single low enzyme concentration with a single substrate concentration fixed at or below the Km. This protocol is a modification of method by Knight et al., FEBS Lett., 296(3), 263-266 (1992). Apparent inhibitory constants were determined by non-linear regression of reaction velocity as a function of inhibitor and enzyme concentration using Morrison's equation, as described by Kuzmic, Anal. Biochem. 286, 45-50 (2000). Modifications were made in the non-linear regression method to allow a common control reaction rate and effective enzyme concentration to be shared between all dose-response relationships on a given assay plate. […]

[1] = human recombinant enzyme, 4 μM substrate II, room temperature, 1 hr, read-out: MMP-13 Ki
[2] = human recombinant enzyme, 4 μM substrate II, room temperature, 1 hr
[3] = value not in parenthesis, read-out: MMP-13 Ki

T2 sequence (P14780 107-707 limits assumed): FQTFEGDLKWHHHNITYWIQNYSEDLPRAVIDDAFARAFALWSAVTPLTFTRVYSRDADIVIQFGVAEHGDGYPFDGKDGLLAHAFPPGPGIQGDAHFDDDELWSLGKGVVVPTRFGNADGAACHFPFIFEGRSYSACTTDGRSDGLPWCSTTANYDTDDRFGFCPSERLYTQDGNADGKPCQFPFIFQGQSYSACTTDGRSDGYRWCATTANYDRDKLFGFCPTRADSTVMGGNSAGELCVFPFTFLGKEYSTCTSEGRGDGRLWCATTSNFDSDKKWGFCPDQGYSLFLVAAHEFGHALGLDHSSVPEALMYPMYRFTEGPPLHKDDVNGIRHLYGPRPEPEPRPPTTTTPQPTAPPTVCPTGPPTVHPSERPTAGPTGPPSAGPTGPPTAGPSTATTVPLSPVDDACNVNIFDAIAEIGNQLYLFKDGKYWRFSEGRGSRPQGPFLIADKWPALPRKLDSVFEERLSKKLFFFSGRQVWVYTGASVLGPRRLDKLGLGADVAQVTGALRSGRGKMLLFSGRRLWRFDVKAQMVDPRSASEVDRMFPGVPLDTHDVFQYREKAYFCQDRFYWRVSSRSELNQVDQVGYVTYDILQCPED

`CCCCc1ccc(C2CCN(S(=O)(=O)C3(C(=O)NO)CCOCC3)CC2)s1` [Example 19, 4-{[4-(5-butylthien-2-yl)piperidin-1-yl]sulfonyl}-N-hydroxytetrahydro-2H-pyran-4-carboxamide] gave a Ki (MMP-13; [1]) of 5.47 nM and a Ki (MMP-9; [2]) of 0.5 nM.
`O=C(NO)C1(S(=O)(=O)N2CCC(c3ccc(OCC(F)(F)F)cc3)CC2)CCN(C2CC2)CC1` [Example 25, 1-cyclopropyl-N-hydroxy-4-({4-[4-(2,2,2-trifluoroethoxy)phenyl]piperidin-1-yl}sulfonyl)piperidine-4-carboxamide Hydrochloride] was tested, and the Ki (MMP-13; [1]) was 0.97 nM and the Ki (MMP-9; [2]) was 6 nM.
Molecule `COCCOc1ccc(N2CCN(S(=O)(=O)C3(C(=O)NO)CCOCC3)CC2)cc1` [Example 14, N-hydroxy-4-({4-[4-(2-methoxyethoxy)phenyl]piperazin-1-yl}sulfonyl)tetrahydro-2H-pyran-4-carboxamide Hydrochloride] has a Ki (MMP-13; [1]) of 2.67 nM and a Ki (MMP-9; [2]) of 20 nM.
`O=C(NO)C1(S(=O)(=O)N2CCN(c3ccc(COCC(F)(F)C(F)(F)C(F)(F)F)cc3)CC2)CCOCC1` [Example 69] showed a Ki (MMP-13; MMP-13 Ki, value not in parenthesis) of 2.11 nM and a Ki (MMP-9; value not in parenthesis) of 202 nM.
For `O=C(NO)C1(S(=O)(=O)N2CCN(c3ccc(-c4ccccc4)c(F)c3)CC2)CCOCC1` [Example 12, 4-{[4-(2-fluoro-1,1′-biphenyl-4-yl)piperazin-1-yl]sulfonyl}-N-hydroxytetrahydro-2H-pyran-4-carboxamide Hydrochloride], the Ki (MMP-13; [1]) was 0.77 nM and the Ki (MMP-9; [2]) was 1 nM.
`CC(C)CCOc1ccc(N2CCN(S(=O)(=O)C3(C(=O)NO)CCN(C4CC4)CC3)CC2)cc1` [Example 128] showed a Ki (MMP-13; [3]) of 0.211 nM and a Ki (MMP-9; value not in parenthesis) of 1.92 nM.
For `CCCCOc1ccc(N2CCN(S(=O)(=O)C3(C(=O)NO)CCN(c4cnccn4)CC3)CC2)cc1` [Example 140], the Ki (MMP-13; [3]) was 0.446 nM and the Ki (MMP-9; value not in parenthesis) was 1.76 nM.
`CC(C)CCc1ccc(N2CCN(S(=O)(=O)C3(C(=O)NO)CCOCC3)CC2)nc1` [Example 133] showed a Ki (MMP-13; [3]) of 0.227 nM and a Ki (MMP-9; value not in parenthesis) of 0.52 nM.
`CCCCOc1ccc(N2CCN(S(=O)(=O)C3(C(=O)NO)CCN(c4cc(C)ccn4)CC3)CC2)cc1` [Example 139] was tested, and the Ki (MMP-13; [3]) was 2.03 nM and the Ki (MMP-9; value not in parenthesis) was 7.45 nM.
`O=C(NO)C1(S(=O)(=O)N2CCN(c3ccc(OC(F)(F)C(F)F)cc3)CC2)CCOCC1` [Example 4, 4-({4-[4-(1,1,2,2-tetrafluoroethoxy)phenyl]piperazinyl}sulfonyl)perhydro-2H-pyran-4-carbohydroxamic Acid] was tested, and the Ki (MMP-13; [1]) was 0.216 nM and the Ki (MMP-9; [2]) was 0.739 nM.
Work on `CCCCOc1ccc(N2CCN(S(=O)(=O)C3(C(=O)NO)CCN(c4ccc(C)nc4)CC3)CC2)cc1` [Example 131] yielded a Ki (MMP-13; [3]) of 0.621 nM and a Ki (MMP-9; value not in parenthesis) of 3.03 nM.
`CCCCOc1ccc(N2CCN(S(=O)(=O)C3(C(=O)NO)CCOCC3)CC2)cc1` [Example 145] was tested, and the Ki (MMP-13; [3]) was 0.347 nM and the Ki (MMP-9; value not in parenthesis) was 1.18 nM.
Work on `CCCCOc1ccc(N2CCN(S(=O)(=O)C3(C(=O)NO)CCN(C(=O)c4cc5ccccc5o4)CC3)CC2)cc1` [Example 127] yielded a Ki (MMP-13; [3]) of 6.18 nM and a Ki (MMP-9; value not in parenthesis) of 24 nM.
In the case of `CCCCOc1ccc(N2CCN(S(=O)(=O)C3(C(=O)NO)CCN(C(=O)NCCOC)CC3)CC2)cc1` [Example 118], the Ki (MMP-13; [3]) is reported as 0.43 nM and the Ki (MMP-9; value not in parenthesis) is reported as 1.5 nM.
For `O=C(NO)C1(S(=O)(=O)N2CCN(c3ccc(CCC(F)(F)C(F)(F)F)cc3)CC2)CCOCC1` [Example 17, N-hydroxy-4-({4-[4-(3,3,4,4,4-pentafluorobutyl)phenyl]piperazin-1-yl}sulfonyl)tetrahydro-2H-pyran-4-carboxamide Hydrochloride], the Ki (MMP-13; [1]) was 0.328 nM and the Ki (MMP-9; [2]) was 1.01 nM.
With `O=C(NO)C1(S(=O)(=O)N2CCN(c3ncc(Br)cn3)CC2)CCOCC1` [Example 104] the Ki (MMP-13; [3]) was 3.55 nM and the Ki (MMP-9; value not in parenthesis) was 11.9 nM.
`CCCc1ccc(N2CCN(S(=O)(=O)C3(C(=O)NO)CCOCC3)CC2)nc1` [Example 136] showed a Ki (MMP-13; [3]) of 0.423 nM and a Ki (MMP-9; value not in parenthesis) of 0.196 nM.
`CCCCOc1ccc(N2CCN(S(=O)(=O)C3(C(=O)NO)CCN(C(=O)OCC(F)(F)F)CC3)CC2)cc1` [Example 115] gave a Ki (MMP-13; [3]) of 1.17 nM and a Ki (MMP-9; value not in parenthesis) of 4.97 nM.
Molecule `O=C(NO)C1(S(=O)(=O)N2CCN(c3ccc(SC(F)(F)F)cc3)CC2)CCN(Cc2ccccc2)CC1` [Example 152] has a Ki (MMP-13; [3]) of 5.74 nM and a Ki (MMP-9; value not in parenthesis) of 90 nM.
For `O=C(NO)C1(S(=O)(=O)N2CCC(c3cnc(OCC(F)(F)C(F)(F)F)cn3)CC2)CCOCC1` [Example 27], the Ki (MMP-13; [1]) was 0.5 nM and the Ki (MMP-9; [2]) was 0.54 nM.
`O=C(NO)C1(S(=O)(=O)N2CCN(c3ccc(OCCCC(F)(F)F)cc3)CC2)CCN(c2cnccn2)CC1` [Example 112] showed a Ki (MMP-13; [3]) of 0.27 nM and a Ki (MMP-9; value not in parenthesis) of 15.4 nM.
Molecule `COc1ccc(N2CCN(S(=O)(=O)C3(C(=O)NO)CCOCC3)CC2)nc1` [Example 108] has a Ki (MMP-13; [3]) of 478 nM and a Ki (MMP-9; value not in parenthesis) of 401 nM.
With `CCCCOc1ccc(N2CCN(S(=O)(=O)C3(C(=O)NO)CCN(c4nc5ccccc5o4)CC3)CC2)cc1` [Example 150] the Ki (MMP-13; [3]) was 11.2 nM and the Ki (MMP-9; value not in parenthesis) was 31.4 nM.
